# Assay results: patent US8932590B2, “Method of adsorbing transforming growth factor β” (TORAY Industries, Inc., priority 2002, dated 2015)
# Structures can show the parent of a compound that is named as a salt.
# What was measured:
# tumor [1] = experiment: Visual observation of tumor metastasis; format: in vivo, rat; details: rats dissected 35 days after the extracorporeal perfusion, region other than beneath the back skin
# Text: The test procedures of Examples 10 to 15 and Comparative Examples 11 to 22 were repeated, except for using three other rats (Examples 16 to 18, and Comparative Examples 21 to 26). The metastasis of the tumor to a region other than beneath the back skin to which the tumor was inoculated was visually observed (Table 6). The rats were dissected 35 days after the extracorporeal perfusion, and the tumor was observed. As a result, the metastasis was hardly observed in cases in which the extracorporeal perfusion treatment was carried out two days into the administration of gemcitabine hydrochloride.
# tumor [2] = experiment: Combined treatment of anticancer agent and extracorporeal perfusion: tumor volume; format: in vivo, rat; details: anticancer agent administered, no extracorporeal perfusion
# Experimental: The dimensions of the tumor region of a rat were measured using micrometer calipers. The longest diameter of the tumor was defined as the major axis, and a diameter of the tumor passing through the midpoint of the major axis in a direction perpendicular to the major axis was defined as the minor axis. The tumor volume was defined according to the following equation: Tumor Volume=(Major Axis)×(Minor Axis)×(Minor Axis)×0.5[Adsorbent for TGF β and Immunosuppressive Acidic Protein] […]
# One week after the inoculation of cancer cells (rat body weight: 400 to 430 g), 0.6 mg of gemcitabine hydrochloride was injected in the vicinity of the tumor. The gemcitabine hydrochloride used herein was prepared by dissolving an injection preparation thereof (available from Eli Lilly Japan K.K.) in physiological saline to yield a 20 mg/mL solution. […]
# Six rats were treated, and the tumor volumes after the inoculation of cancer cells were determined. The results in Comparative Examples 15 to 20, in which the anticancer agent was administered but the extracorporeal perfusion treatment was not carried out, are shown in Table 5.
compound,measurement,setting,value
"Nc1ccn([C@@H]2O[C@H](CO)[C@@H](O)C2(F)F)c(=O)n1 [Comparative Example 15, gemcitabine hydrochloride]",Metastasis (visual observation),"tumor [1]; listed as Com. Ex. 25, hydrochloride",dermic micrometastasis (2 mm
same,Metastasis (visual observation),"tumor [1]; listed as Com. Ex. 26, hydrochloride",dermic micrometastasis (2 mm
same,Tumor volume,tumor [2]; 14 days after inoculation of cancer cells,<0.06 mL
same,Tumor volume,"tumor [2]; 21 days after inoculation of cancer cells, hydrochloride",4.3 mL
same,Tumor volume,"tumor [2]; 21 days after inoculation of cancer cells, listed as Comparative Example 16, hydrochloride",7.9 mL
same,Tumor volume,"tumor [2]; 21 days after inoculation of cancer cells, listed as Comparative Example 17, hydrochloride",6.6 mL
same,Tumor volume,"tumor [2]; 21 days after inoculation of cancer cells, listed as Comparative Example 18, hydrochloride",7.4 mL
same,Tumor volume,"tumor [2]; 21 days after inoculation of cancer cells, listed as Comparative Example 19, hydrochloride",7.0 mL
same,Tumor volume,"tumor [2]; 21 days after inoculation of cancer cells, listed as Comparative Example 20, hydrochloride",4.5 mL
same,Tumor volume,"tumor [2]; 28 days after inoculation of cancer cells, hydrochloride",26 mL
same,Tumor volume,"tumor [2]; 28 days after inoculation of cancer cells, listed as Comparative Example 16, hydrochloride",41 mL
same,Tumor volume,"tumor [2]; 28 days after inoculation of cancer cells, listed as Comparative Example 17, hydrochloride",24 mL
same,Tumor volume,"tumor [2]; 28 days after inoculation of cancer cells, listed as Comparative Example 18, hydrochloride",35 mL
same,Tumor volume,"tumor [2]; 28 days after inoculation of cancer cells, listed as Comparative Example 19, hydrochloride",30 mL
same,Tumor volume,"tumor [2]; 28 days after inoculation of cancer cells, listed as Comparative Example 20, hydrochloride",25 mL
same,Tumor volume,"tumor [2]; 35 days after inoculation of cancer cells, hydrochloride",41 mL
same,Tumor volume,"tumor [2]; 35 days after inoculation of cancer cells, listed as Comparative Example 16, hydrochloride",59 mL
same,Tumor volume,"tumor [2]; 35 days after inoculation of cancer cells, listed as Comparative Example 17, hydrochloride",38 mL
same,Tumor volume,"tumor [2]; 35 days after inoculation of cancer cells, listed as Comparative Example 18, hydrochloride",54 mL
same,Tumor volume,"tumor [2]; 35 days after inoculation of cancer cells, listed as Comparative Example 19, hydrochloride",47 mL
same,Tumor volume,"tumor [2]; 35 days after inoculation of cancer cells, listed as Comparative Example 20, hydrochloride",37 mL
